Measured values: patent US20230157952A1, “METHOD FOR IMPROVING THE STABILITY OF A PHARMACEUTICAL COMPOSITION COMPRISING A HIGH PENETRATION DRUG, AND THE PHARMACEUTICAL COMPOSITION OBTAINED THEREFROM” (Techfields Inc., priority 2020, published 2023)
One block for each compound: values may come before it. Non-standard residues stand in square brackets, D forms with d. Arg(NO2) = N=C(NCCC[C@H](N)C(=O)O)N[N+](=O)[O-]

Assay: Effect of concentration on the stability of the solution (purity over time)
Settings: for Purity (%) at Day 3 / Purity (%) at Day 7 / Purity (%) at hr 0 / Purity (%) at hr 24 / Purity(%) at Day 14 / Purity(%) at Day 28 / Purity(%) at Day 21: 25° C.; for Purity at Day 30 / Purity at Day 90 / Purity at Day 180 / Purity at day 0: 1 equivalent sodium acetate in 50% ethanol at 25° C.

- Stability of common ester over the concentrations tested (0.01% to 10% (or higher) in 50% ethanol at 25° C.): very stable
- Purity (%) at Day 3 (0.01 wt % in 50% ethanol): 98.1%
- Purity (%) at Day 7 (0.01 wt % in 50% ethanol): 98.3%
- Purity (%) at hr 0 (0.01 wt % in 50% ethanol): 98.4%
- Purity (%) at hr 24 (0.01 wt % in 50% ethanol): 98.3%
- Purity(%) at Day 14 (0.01 wt % in 50% ethanol): 98.2%
- Purity(%) at Day 28 (0.01 wt % in 50% ethanol): 98.2%
- Purity (%) at Day 3 (0.1 wt % in 50% ethanol): 98.4%
- Purity (%) at Day 7 (0.1 wt % in 50% ethanol): 98.4%
- Purity (%) at hr 0 (0.1 wt % in 50% ethanol): 98.4%
- Purity (%) at hr 24 (0.1 wt % in 50% ethanol): 98.5%
- Purity(%) at Day 14 (0.1 wt % in 50% ethanol): 98.3%
- Purity(%) at Day 28 (0.1 wt % in 50% ethanol): 98.3%
- Purity (%) at Day 3 (1 wt % in 50% ethanol): 98.5%
- Purity (%) at Day 7 (1 wt % in 50% ethanol): 98.4%
- Purity (%) at hr 0 (1 wt % in 50% ethanol): 98.5%
- Purity (%) at hr 24 (1 wt % in 50% ethanol): 98.4%
- Purity(%) at Day 14 (1 wt % in 50% ethanol): 98.3%
- Purity(%) at Day 28 (1 wt % in 50% ethanol): 98.3%
- Purity (%) at Day 3 (3 wt % in 50% ethanol): 98.4%
- Purity (%) at Day 7 (3 wt % in 50% ethanol): 98.4%
- Purity (%) at hr 0 (3 wt % in 50% ethanol): 98.4%
- Purity (%) at hr 24 (3 wt % in 50% ethanol): 98.6%
- Purity(%) at Day 14 (3 wt % in 50% ethanol): 98.4%
- Purity(%) at Day 28 (3 wt % in 50% ethanol): 98.4%
- Purity (%) at Day 3 (5 wt % in 50% ethanol): 98.7%
- Purity (%) at Day 7 (5 wt % in 50% ethanol): 98.4%
- Purity (%) at hr 0 (5 wt % in 50% ethanol): 98.5%
- Purity (%) at hr 24 (5 wt % in 50% ethanol): 98.4%
- Purity(%) at Day 14 (5 wt % in 50% ethanol): 98.4%
- Purity(%) at Day 28 (5 wt % in 50% ethanol): 98.4%
- Purity (%) at Day 3 (10 wt % in 50% ethanol): 98.4%
- Purity (%) at Day 7 (10 wt % in 50% ethanol): 98.4%
- Purity (%) at hr 0 (10 wt % in 50% ethanol): 98.5%
- Purity (%) at hr 24 (10 wt % in 50% ethanol): 98.8%
- Purity(%) at Day 14 (10 wt % in 50% ethanol): 98.4%
- Purity(%) at Day 28 (10 wt % in 50% ethanol): 98.4%
Compound: CC(C)OC(=O)c1ccccc1 [Isopropyl benzoate, reference compound]

Compound: H-Val-Pro-Gly-Pro-Arg(NO2)—OCH2CH3•HCl (H-VPGP[Arg(NO2)]-OEt; also: HCl salt)
- Purity at Day 30 (0.01 wt %): 55.5%
- Purity at Day 90 (0.01 wt %): 22.2%
- Purity at Day 180 (0.01 wt %): 0%
- Purity at day 0 (0.01 wt %): 98.1%
- Purity at Day 30 (0.1 wt %): 65.7%
- Purity at Day 90 (0.1 wt %): 31.3%
- Purity at Day 180 (0.1 wt %): 9.6%
- Purity at day 0 (0.1 wt %): 98.2%
- Purity at Day 30 (1 wt %): 91.1%
- Purity at Day 90 (1 wt %): 77.3%
- Purity at Day 180 (1 wt %): 58.6%
- Purity at day 0 (1 wt %): 98.5%
- Purity at Day 30 (3 wt %): 96.8%
- Purity at Day 90 (3 wt %): 93.2%
- Purity at Day 180 (3 wt %): 87.8%
- Purity at day 0 (3 wt %): 98.6%
- Purity at Day 30 (5 wt %): 97.3%
- Purity at Day 90 (5 wt %): 94.9%
- Purity at Day 180 (5 wt %): 90.5%
- Purity at day 0 (5 wt %): 98.7%
- Purity at Day 30 (7 wt %): 97.6%
- Purity at Day 90 (7 wt %): 95.2%
- Purity at Day 180 (7 wt %): 91.7%
- Purity at day 0 (7 wt %): 98.7%
- Purity at Day 30 (8 wt %): 97.7%
- Purity at Day 90 (8 wt %): 95.2%
- Purity at Day 180 (8 wt %): 91.6%
- Purity at day 0 (8 wt %): 98.6%
- Purity at Day 30 (10 wt %): 97.5%
- Purity at Day 90 (10 wt %): 95.3%
- Purity at Day 180 (10 wt %): 91.7%
- Purity at day 0 (10 wt %): 98.6%
- Purity at Day 30 (15 wt %): 97.7%
- Purity at Day 90 (15 wt %): 95.3%
- Purity at Day 180 (15 wt %): 91.8%
- Purity at day 0 (15 wt %): 98.8%
- Purity at Day 30 (20 wt %): 97.5%
- Purity at Day 90 (20 wt %): 95.1%
- Purity at Day 180 (20 wt %): 91.5%
- Purity at day 0 (20 wt %): 98.6%
- Purity at Day 30 (30 wt %): 97.5%
- Purity at Day 90 (30 wt %): 95.1%
- Purity at Day 180 (30 wt %): 91.6%
- Purity at day 0 (30 wt %): 98.7%
- Purity at Day 30 (50 wt %): 97.7%
- Purity at Day 90 (50 wt %): 95.3%
- Purity at Day 180 (50 wt %): 91.8%
- Purity at day 0 (50 wt %): 98.7%

Compound: CCN(CC)CCOC(=O)CCCc1ccc(N(CCCl)CCCl)cc1.Cl
- Purity (%) at Day 3 (0.01 wt % in water): 83.1%
- Purity (%) at Day 7 (0.01 wt % in water): 72.9%
- Purity (%) at hr 0 (0.01 wt % in water): 97.8%
- Purity(%) at Day 14 (0.01 wt % in water): 56.9%
- Purity(%) at Day 21 (0.01 wt % in water): 43.2%
- Purity(%) at Day 28 (0.01 wt % in water): 34.3%
- Purity (%) at Day 3 (0.1 wt % in water): 94.1%
- Purity (%) at Day 7 (0.1 wt % in water): 89.6%
- Purity (%) at hr 0 (0.1 wt % in water): 97.9%
- Purity(%) at Day 14 (0.1 wt % in water): 81.5%
- Purity(%) at Day 21 (0.1 wt % in water): 73.7%
- Purity(%) at Day 28 (0.1 wt % in water): 62.5%
- Purity (%) at Day 3 (1 wt % in water): 95.1%
- Purity (%) at Day 7 (1 wt % in water): 91.9%
- Purity (%) at hr 0 (1 wt % in water): 98.2%
- Purity(%) at Day 14 (1 wt % in water): 85.9%
- Purity(%) at Day 21 (1 wt % in water): 81.9%
- Purity(%) at Day 28 (1 wt % in water): 76.9%
- Purity (%) at Day 3 (3 wt % in water): 96.2%
- Purity (%) at Day 7 (3 wt % in water): 95.0%
- Purity (%) at hr 0 (3 wt % in water): 98.4%
- Purity(%) at Day 14 (3 wt % in water): 91.0%
- Purity(%) at Day 21 (3 wt % in water): 87.3%
- Purity(%) at Day 28 (3 wt % in water): 83.7%
- Purity (%) at Day 3 (5 wt % in water): 98.2%
- Purity (%) at Day 7 (5 wt % in water): 97.8%
- Purity (%) at hr 0 (5 wt % in water): 98.5%
- Purity(%) at Day 14 (5 wt % in water): 97.0%
- Purity(%) at Day 21 (5 wt % in water): 96.3%
- Purity(%) at Day 28 (5 wt % in water): 95.0%
- Purity (%) at Day 3 (7 wt % in water): 98.4%
- Purity (%) at Day 7 (7 wt % in water): 98.2%
- Purity (%) at hr 0 (7 wt % in water): 98.5%
- Purity(%) at Day 14 (7 wt % in water): 98.0%
- Purity(%) at Day 21 (7 wt % in water): 97.6%
- Purity(%) at Day 28 (7 wt % in water): 97.4%
- Purity (%) at Day 3 (8 wt % in water): 98. %
- Purity (%) at Day 7 (8 wt % in water): 98.3%
- Purity (%) at hr 0 (8 wt % in water): 98.5%
- Purity(%) at Day 14 (8 wt % in water): 97.9%
- Purity(%) at Day 21 (8 wt % in water): 97.7%
- Purity(%) at Day 28 (8 wt % in water): 97.3%
- Purity (%) at Day 3 (10 wt % in water): 98.5%
- Purity (%) at Day 7 (10 wt % in water): 98.3%
- Purity (%) at hr 0 (10 wt % in water): 98.6%
- Purity(%) at Day 14 (10 wt % in water): 98.2%
- Purity(%) at Day 21 (10 wt % in water): 97.7%
- Purity(%) at Day 28 (10 wt % in water): 97.4%
- Purity (%) at Day 3 (15 wt % in water): 98.5%
- Purity (%) at Day 7 (15 wt % in water): 98.4%
- Purity (%) at hr 0 (15 wt % in water): 98.6%
- Purity(%) at Day 14 (15 wt % in water): 98.1%
- Purity(%) at Day 21 (15 wt % in water): 97.7%
- Purity(%) at Day 28 (15 wt % in water): 97.3%
- Purity (%) at Day 3 (20 wt % in water): 98.4%
- Purity (%) at Day 7 (20 wt % in water): 98.3%
- Purity (%) at hr 0 (20 wt % in water): 98.6%
- Purity(%) at Day 14 (20 wt % in water): 98.2%
- Purity(%) at Day 21 (20 wt % in water): 97.8%
- Purity(%) at Day 28 (20 wt % in water): 97.3%
- Purity (%) at Day 3 (30 wt % in water): 98.4%
- Purity (%) at Day 7 (30 wt % in water): 98.4%
- Purity (%) at hr 0 (30 wt % in water): 98.5%
- Purity(%) at Day 14 (30 wt % in water): 98.3%
- Purity(%) at Day 21 (30 wt % in water): 97.7%
- Purity(%) at Day 28 (30 wt % in water): 97.4%
- Purity (%) at Day 3 (50 wt % in water): 98.4%
- Purity (%) at Day 7 (50 wt % in water): 98.3%
- Purity (%) at hr 0 (50 wt % in water): 98.6%
- Purity(%) at Day 14 (50 wt % in water): 98.2%
- Purity(%) at Day 21 (50 wt % in water): 97.8%
- Purity(%) at Day 28 (50 wt % in water): 97.4%
